What was measured:
patients [1] = assay: Phase II study: coronary blood flow velocity monitored with a flow wire; type: in vivo, human
Description: that can be used in clinical perfusion imaging techniques (e.g., for diagnosing and assessing the extent of coronary artery disease) in U.S. Pat. No. 6,322,771. This agent has since been taken into Phase I and II clinical trials. In 2005, Dr. […] et al reported to the American Heart Association on the preliminary results of 127 patient SPECT Tc^99m sestamibi imaging studying comparing adenosine with Apadenoson using either 1 μg/kg or 2 μg/kg intravenous boluses of Apadenoson. […] In 2006, Dr. Kern et al reported to the American Heart Association the results of a Phase II study of Apadenoson, one goal of which was to determine an appropriate dose for Phase III clinical trials. Intravenous bolus dosages of 0.5, 1.0, 2.0, and 2.5 μg/kg were studied. […] In this Phase II study in 100 patients, conducted by Dr. Morton Kern, an independent investigator at UC Irvine, […] was administered by intracoronary injection, and coronary blood flow velocity was monitored with a flow wire. […] The previously reported increase in coronary blood flow velocity (CBFV) corresponding to an increase in dose of Apadenoson from 0.5 to 2 μg/kg was based on the increase in CBFV in a limited number of patients (see FIG. 1).

patients [2] = settings: intravenous bolus, dosage from 0.5 to 2 μg/kg; limited number of patients (FIG. 1); Kern et al 2006; cited from earlier work

Row | SMILES | dose response curve (patients [1]; 1 μg/kg or 2 μg/kg administered) | dose response of coronary blood flow velocity (CBFV) (patients [1]; entire sample of patients (FIG. 2, 33 patients), dose ≥1 μg/kg, in particular between 1 and 2.5 μg/kg) | peak flow compared with adenosine (patients [1]; increasing bolus doses, one patient (FIG. 1)) | average peak velocity for coronary blood flow versus dose (patients [2]) | coronary blood flow velocity (patients [1]; three intracoronary injections, one patient (FIG. 1))
1 | CCNC(=O)[C@H]1O[C@@H](n2cnc3c(N)nc(C#CC[C@H]4CC[C@H](C(=O)OC)CC4)nc32)[C@H](O)[C@@H]1O [Apadenoson] | no dose response curve is seen | no dose response is seen | achieved peak flow equivalent to adenosine | increase with a corresponding increase in dosage | 
2 | Nc1ncnc2c1ncn2[C@@H]1O[C@H](CO)[C@@H](O)[C@H]1O [adenosine, reference compound] |  |  |  |  | increased blood flow velocity

— US20190022253A1, “UNIT DOSAGE OF APADENOSON” (University of Virginia Patent Foundation, priority 2008, published 2019)
